Measurements from patent US20130287918A1, “MICROBICIDAL COMPOSITION” (DUPONT NUTRITION DIOSCIENCES APS, priority 2010, published 2013).

Legend:
[1] = tested on: pool of 4 mould species (Penicillium sp DCS 1380, Aspergillus versicolor DCS 1069, Aspergillus parasiticus DCS 709, Mucor sp DCS 1140); test: Salsa sauce fresh challenge study, mould growth; type: cell-based; conditions: Salsa sauce 4° C.; blends 1%
Protocol: (§1) Each batch was split (scheme table 15) in probes of 90 gram and placed in sterile jars. 21 probes of each batch were inoculated with the desired level of yeast and 5 probes of each batch were inoculated with mould spores, respectively at a targeted inoculation rate of 300 to 800 CFU/g.
(§2) The viscous products were thoroughly mixed (2 minutes) within 10 minutes of inoculation to ensure that the inoculum was evenly distributed throughout the product. One sample remained un-inoculated and was used as negative control to monitor the native contamination flora. All samples were incubated in the dark at chilled temperature (4° C.) and assayed for yeast, plated on an appropriate yeast medium, until confirmed failure (≧1.0E+06 CFU/g) or until visible mould growth, respectively. In parallel, the growth of lactic acid bacteria and total cell count were monitored on MRS and PCA in all the batches and the non-inoculated blind, respectively.
Mould spores were prepared as follows: approx. 2 ml of sterile demineralised water was used to wash the spores off an out-grown mould cultivar (minimum 5 day old plate). This suspension is transferred to a sterile container. Pool counts were verified via plate count.
5 samples from each batch inoculated with mould were visually analysed for mould growth.

[2] = Ranch dressing challenge study, pH measurement; type: physicochemical; conditions: 0.1%, non-inoculated sample
Excerpt: A pH measurement of non-inoculated sample material took place at every sampling date using a Mettler Toledo Seven Easy pH meter.

[3] = tested on: pool of 4 yeast species (Candida tropicalis DCS 604, Zygosaccharomyces bailii DCS 1167 and DCS 1172, Pichia spp DCS 1175); test: Salsa sauce fresh challenge study, yeast count on YGC agar; type: cell-based; conditions: Salsa sauce 4° C., FP1000-D1 1%, FP1000-D2 1%, MG200 1%, Potassium Sorbate 0.1%
Excerpt: Samples of the Salsa sauce (formula in table 17) with and without the experimental blend were produced. […] It needs to be mentioned that the Salsa sauce was not pasteurized.
as §1, §2
(§3) In total 8 strains, available from Danisco's Culture Collection (DCS) (Danisco A/S, Brabrand, Denmark) were employed as 1 yeast and 1 mould pool in the respective Salsa sauce. Originally, they were isolated e.g. from spoiled ketchup, mayonnaise. Salsa dressing or obtained from official culture collections such as DMSZ.
(§4) Before each experiment, a stock culture of each yeast, maintained at −86° C. in suitable broth containing glycerol 50% (v/v), was propagated through two consecutive growth cycles in suitable media (YGC-agar (VWR) pH 5.1+0.2; YM Broth (Becton, Dickinson and Company) at pH 6.0±0.2 at and temperature (25° C.). The overnight cultures are diluted in saline solution to obtain working cultures. A cocktail of the yeasts was generated by adding equal cell counts of each culture into a sterile container and mixed appropriately. The yeast cocktail was diluted and inoculated into the product in order to achieve the final desired concentration. Pool counts were verified via plate count.
The Salsa sauces were assayed at time zero, day 3, day 7, day 14 and were plated bi-weekly thereafter until day 92. CFU/g was detected for 3 samples from each batch inoculated with yeast. Before each sampling (closed jar), the sample was thoroughly mixed, 10 gram sample were aseptically pulled from each jar and diluted with peptone water. Each sample was stomached (1 min, normal setting) plated in duplicate onto YGC agar (VWR) and MRS (VWR), and incubated at 25° C. for 5 days and 37° C. for 3 days, respectively.

[4] = tested on: pool of 4 yeast species (Candida tropicalis DCS 604, Zygosaccharomyces bailii DCS 1167 and DCS 1172, Pichia spp DCS 1175); test: BBQ sauce challenge study, yeast count on YGC agar; type: cell-based; conditions: for Cell counts on YGC-agar (yeast growth): BBQ sauce 20° C., Potassium Sorbate 0.1%
Protocol: Samples of the BBQ sauce (formula in table 9) with and without the experimental blend were produced in the Danisco Culinary Application Laboratory, Brabrand.
Each batch was split (scheme table 8) in probes of 90 gram and placed in sterile jars. 42 probes of each batch were inoculated with the desired level of yeast and 5 probes of each batch were inoculated with mould spores, respectively at a targeted inoculation rate of 500 to 1000 CFU/g.
as §2, with “incubated” for “incubated in the dark”, “ambient” for “chilled”, “(20°” for “(4°”
as §3, with “strains, from” for “strains,”, “as one” for “as 1”, “and one” for “and 1”, “respective BBQ” for “respective Salsa”
as §4, with “company)” for “Company)”
The BBQ sauces were assayed at time zero, day 2, day 5, day 12, weekly until week 10 (day 68) and bi-weekly thereafter until week 19 (day 131). CFU/g was detected for 3 samples from each batch inoculated with yeast. Before each sampling (closed jar), the sample was thoroughly mixed. 10 gram sample were aseptically pulled from each jar and diluted with peptone water. Each sample was stomached (1 min, normal setting) plated in duplicate onto YGC agar (VWR) and MRS (VWR), and incubated at 25° C. for 5 days and 37° C. for 3 days, respectively.

C/C=C/C=C/C(=O)[O-].[K+] [Potassium Sorbate, potassium sorbate]
control of mould outgrowth (plate count in yeast inoculated samples) [1]: 12 weeks
pH development of the Ranch dressing batch ([2]; day 0): 4.02
pH development of the Ranch dressing batch ([2]; day 3): 4.00
pH development of the Ranch dressing batch ([2]; day 7): 4.02
pH development of the Ranch dressing batch ([2]; day 14): 4.00
pH development of the Ranch dressing batch ([2]; day 28): 3.94
pH development of the Ranch dressing batch ([2]; day 42): 3.96
pH development of the Ranch dressing batch ([2]; day 56): 3.96
pH development of the Ranch dressing batch ([2]; day 64): 3.95
pH development of the Ranch dressing batch ([2]; day 90): 3.96
pH development of the Ranch dressing batch ([2]; day 157): 3.92
pH development of the Ranch dressing batch ([2]; day 198): 3.94
Cell counts on YGC-agar (yeast growth) ([3]; day 0): 4.75E+02 CFU/g
Cell counts on YGC-agar (yeast growth) ([3]; day 2): 2.50E+02 CFU/g
Cell counts on YGC-agar (yeast growth) ([3]; day 5): 1.00E+02 CFU/g
Cell counts on YGC-agar (yeast growth) ([3]; day 7): 6.80E+01 CFU/g
Cell counts on YGC-agar (yeast growth) ([3]; day 14): 4.80E+01 CFU/g
Cell counts on YGC-agar (yeast growth) ([3]; day 28): 1.45E+02 CFU/g
Cell counts on YGC-agar (yeast growth) ([3]; day 41): 3.30E+01 CFU/g
Cell counts on YGC-agar (yeast growth) ([3]; day 55): 3.20E+01 CFU/g
Cell counts on YGC-agar (yeast growth) ([3]; day 93): 3.30E+01 CFU/g
initial reduction of the inoculated cell load ([4]; BBQ sauce, YM10 1% and 0.5%, potassium sorbate): 3 log
Cell counts on YGC-agar (yeast growth) ([4]; day 0, YM10 1%, MG200 1%, Competitor product 1.25%): 6.07E+02 CFU/g
Cell counts on YGC-agar (yeast growth) ([4]; day 2, YM10 1%, MG200 1%, Competitor product 1.25%): 1.47E+02 CFU/g
Cell counts on YGC-agar (yeast growth) ([4]; day 5, YM10 1%, MG200 1%, Competitor product 1.25%): 2.50E+01 CFU/g
Cell counts on YGC-agar (yeast growth) ([4]; day 12, YM10 1%, MG200 1%, Competitor product 1.25%): 1.00E+00 CFU/g
Cell counts on YGC-agar (yeast growth) ([4]; day 19, YM10 1%, MG200 1%, Competitor product 1.25%): 1.00E+00 CFU/g
Cell counts on YGC-agar (yeast growth) ([4]; day 26, YM10 1%, MG200 1%, Competitor product 1.25%): 1.00E+00 CFU/g
Cell counts on YGC-agar (yeast growth) ([4]; day 41, YM10 1%, MG200 1%, Competitor product 1.25%): 1.00E+00 CFU/g
Cell counts on YGC-agar (yeast growth) ([4]; day 49): 1.00E+00 CFU/g
Cell counts on YGC-agar (yeast growth) ([4]; day 55): 1.00E+00 CFU/g
Cell counts on YGC-agar (yeast growth) ([4]; day 68): 1.00E+00 CFU/g
Cell counts on YGC-agar (yeast growth) ([4]; day 82): 1.00E+00 CFU/g
Cell counts on YGC-agar (yeast growth) ([4]; day 104): 1.00E+00 CFU/g
Cell counts on YGC-agar (yeast growth) ([4]; day 117): 1.00E+00 CFU/g
Cell counts on YGC-agar (yeast growth) ([4]; day 131): 2.50E+01 CFU/g
